Key:
[1] = mice and rats, doses 10 to 58 times those used in humans; cited from earlier work
[2] = target: T1, HBV genotype D RNAseH (HRHPL) (Hepatitis B virus genotype D subtype ayw, UniProt P03156, INS679M); assay: Oligonucleotide-directed RNAseH cleavage assay, HBV genotype D; type: biochemical; conditions: for Residual activity at 10 uM, Genotype D: ± standard deviation, 3 to 7 replicates; for Activity vs. HBV Biochemical vs. gtD: class by concentration giving inhibition (10, 20, 60 μM)
T1 construct: HRHPL contains HBV genotype D (Genbank V01460) polymerase residues 684-845; made in house; host or cells: E. coli BL21 codon+
T1 sequence (P03156 680-832, added parts left off, stated change not applied): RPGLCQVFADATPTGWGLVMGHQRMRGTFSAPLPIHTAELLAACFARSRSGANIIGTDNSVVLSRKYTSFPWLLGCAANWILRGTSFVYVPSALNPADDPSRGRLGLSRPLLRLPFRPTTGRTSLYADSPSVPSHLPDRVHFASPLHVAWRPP

HBV genotype H RNAseH = assay: Oligonucleotide-directed RNAseH cleavage assay, HBV genotype H; type: biochemical, Hepatitis B virus; conditions: 10 μM; ± standard deviation, 3 to 7 replicates
Protocol: (§1) For the oligonucleotide-directed RNAseH cleavage assay (Gong et al., 2001), 6 μl protein extract (typical protein concentration 2.8 mg/ml) was mixed with 0.5 μg internally ^32P-labeled DRF+ RNA (nucleotides 2401-2605 of the duck HBV genome plus 60 nucleotides of flanking sequences from pBluescript) and 3 μg oligonucleotide D2507- or its corresponding negative control D2526+ on ice in 20 μl under the conditions in Table 1. Some reactions in FIG. 5 employed oligonucleotide D2543M-Sal or its D2453+ negative control as indicated. The reactions were incubated at 42° C. for 90 min. and terminated by addition of Laemmli protein loading buffer and boiling. The samples were resolved by 12% SDS-PAGE, the gels were stained with Coomassie blue to monitor protein loading, and labeled RNA was detected by autoradiography. Candidate inhibitors were dissolved in DMSO and added at the indicated concentrations during assembly of the reactions. Control reactions lacking the compounds contained DMSO as a vehicle control. The RNAseH autoradiograms were scanned and quantified with ImageJ. The oligonucleotides were: D2526+([…]; SEQ ID NO:8), D2507-([…]; SEQ ID NO:9), D2453+([…]; SEQ ID NO:10), and D2543M-Sal ([…]; SEQ ID NO:11).
Oligonucleotide-directed RNAseH cleavage assays (Gong et al., 2001) were performed as described (Tavis et al., 2013). Briefly, HBV RNAseH extracts were mixed with a 264 nt-long internally ^32P-labeled RNA plus an excess of a complementary DNA oligonucleotide or its inverse-complement as a negative control in a final concentration of 65 mM Tris pH 8.0, 190 mM NaCl, 5 mM MgCl2, 5 mM dTT, 0.05% NP40, and 6% glycerol. βTJ was dissolved in DMSO and added at the indicated concentrations; the final concentration of DMSO in all reactions was 1%. The reactions were incubated at 42° C. for 90 min. and terminated by addition of Laemmli protein electrophoresis buffer. The samples were resolved by SDS-PAGE, labeled RNA was detected by autoradiography, the autoradiograms were scanned, and the RNA cleavage products were quantified with ImageJ (National Institutes of Health). IC50 values were calculated by non-linear regression using GraphPad Prism (GraphPad Software, Inc.).

[3] = target: T2, chimeric HBV:HIV RNAseH HHC1 (Hepatitis B virus genotype D subtype ayw, UniProt P03156, DELINS787-795[…]/INS679M); assay: Oligonucleotide-directed RNAseH cleavage assay, chimeric HHC1; type: biochemical; conditions: 10 μM; ± standard deviation, 3 to 7 replicates
T2 construct: HHC1 is an HRHPL derivative; made in house; host or cells: E. coli BL21 codon+
T2 sequence (P03156 680-786, added parts left off, stated change not applied): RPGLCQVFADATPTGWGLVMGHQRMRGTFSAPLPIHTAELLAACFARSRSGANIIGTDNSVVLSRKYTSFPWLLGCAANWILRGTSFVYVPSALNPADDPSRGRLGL
Excerpt: pCMV-HBV-LE-(CMV-HBV) is an HBV over-length genomic expression vector containing 1.2 copies of the HBV(adw2) genome (Genbank X02763.1) downstream of the CMV promoter cloned into pBS (Promega). Surface protein expression from this vector is ablated by mutating the preS and S open reading frames. pCMV-HBV(genotype D) is an analogous HBV genomic expression construct and was a gift from Dr. Shuping Tong (Brown University). For bacterial expression, codon-optimized cDNA sequences for HRHPL (genotypes A, B, C, D, and H), and noncodon-optimized sequences for HHC1 and HHC2 were cloned by gene synthesis (Genscript) between the NcoI and EcoRI sites into pTrcHis2B (Invitrogen) with a C-terminal hexahistidine tag. HRHPL contains HBV genotype D (Genbank V01460) polymerase residues 684-845. HHC1 is an HRHPL derivative in which HBV polymerase residues 800-808 were replaced with HIV residues corresponding to the RNAseH helix D ([…]; SEQ ID NO:6). HHC2 is an HRHPL derivative in which HBV polymerase residues 800-845 were replaced with HIV residues corresponding to the RNAseH helix D to the C-terminus ([…]; SEQ ID NO:7). The human RNAseH1 gene (NP_002927.2) was cloned with an N-terminal hexahistidine-tag between the BamHI and XhoI sites of pRsetB (Invitrogen) by gene synthesis.
as §1

HBV = HBV genomic replication assays (Table 2); type: cell-based, Hepatitis B virus; conditions: class by active concentration
Method in brief: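 Huh7 cells transfected with HBV plasmid received compound at 10 or 50 μM, refreshed every 1-2 days. Core-particle DNA isolated 4-5 days post-transfection was analysed by Southern blot, with or without RNaseH. For the screen, replicating cells got 60, 20 or 6.7 μM, refreshed days 1-2, and plus-strand DNA was quantified on day 3 by cross-gap TaqMan PCR.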

[4] = target: HCV RNA-directed RNA polymerase (Hepatitis C virus genotype 1a, UniProt P27958); assay: Primed homopolymeric RNA (poly-G) synthesis assay; type: biochemical; conditions: 10 μM
HCV RNA-directed RNA polymerase, sequence (P27958 2421-3011): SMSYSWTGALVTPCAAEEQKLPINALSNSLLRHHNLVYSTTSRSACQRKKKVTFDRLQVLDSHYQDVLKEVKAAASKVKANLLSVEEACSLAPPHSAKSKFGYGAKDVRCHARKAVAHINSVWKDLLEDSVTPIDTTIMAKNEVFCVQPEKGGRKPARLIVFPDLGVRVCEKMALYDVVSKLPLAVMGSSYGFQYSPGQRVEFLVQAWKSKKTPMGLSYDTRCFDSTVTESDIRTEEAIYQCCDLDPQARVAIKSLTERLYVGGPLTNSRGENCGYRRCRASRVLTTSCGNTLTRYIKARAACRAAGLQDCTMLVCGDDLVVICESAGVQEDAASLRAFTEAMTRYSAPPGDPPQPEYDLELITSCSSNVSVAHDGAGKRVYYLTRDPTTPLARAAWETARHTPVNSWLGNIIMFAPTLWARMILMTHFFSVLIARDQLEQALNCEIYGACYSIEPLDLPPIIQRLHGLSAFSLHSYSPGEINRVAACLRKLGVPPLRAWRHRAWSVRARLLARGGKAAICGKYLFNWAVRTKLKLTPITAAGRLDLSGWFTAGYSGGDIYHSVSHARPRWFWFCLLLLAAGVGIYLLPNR
Protocol: FIGS. 9A-C. Specificity of anti-HBV RNAseH compounds. (FIG. 9A) Inhibition of HBV genotype D RNAseH by irrelevant compounds at 10 μM in the oligonucleotide-directed RNAseH assay. Compound #4 was employed as an example HBV RNAseH inhibitor. […] The ability of compounds #5, 6 and 8 to inhibit production of poly-G by the HCV RNA-directed RNA polymerase was measured in a primed homopolymeric RNA synthesis assay (Cao, et al., 2011. The compounds were employed at 10 μM. DMSO, vehicle control. (FIG. 9C) Dose-responsiveness of HBV RNAseH inhibition. The effects of compounds #6, 8, and 12 on the RNAseH activity of HRHPL (genotype D) were measured at concentrations ranging from 0.5 to 50 μM. The dose-response profile is plotted for compound #12.

For `Nc1ccn([C@H]2CS[C@@H](CO)O2)c(=O)n1` [Lamivudine, 2′,3′-dideoxy-3′-thiacytidine], the Carcinogenicity or mutagenicity [1] is given as “no evidence of carcinogenicity or mutagenicity”.

In the case of `Cc1cc(C)c(C#N)c(=N)o1` [Compound 5], the “Residual activity at 10 uM, Genotype D” value [2] is reported as 42 ± 15 Percent DMSO control, the “Activity vs. HBV Biochemical vs. gtD” value [2] is reported as “+ (+ inhibition at 60 μM)” and the “Residual activity at 10 uM, Genotype H” value (HBV genotype H RNAseH) is reported as 76 ± 14 Percent DMSO control. For the same compound, the “Residual activity at 10 uM, HHC1” value [3] was 36 ± 6 Percent DMSO control, the “Activity vs. HBV Genomic Replication” value (HBV) was “− (− no activity at 60 μM)” and the “Inhibition of poly-G production by HCV RNA polymerase” value [4] was “do not significantly inhibit”.

For `CCOC(=O)c1sc(NC(=O)CSc2nnc(Cc3ccccc3)o2)c(C#N)c1C` [Compound 6], the “Residual activity at 10 uM, Genotype D” value [2] was 40 ± 16 Percent DMSO control, the Inhibition ([2]; at 50 μM) was 75% and the Inhibition plateau ([2]; between 3 and 40 μM) was 20-30%. For the same compound, the “Activity vs. HBV Biochemical vs. gtD” value [2] was “+ (+ inhibition at 60 μM)”, the “Residual activity at 10 uM, Genotype H” value (HBV genotype H RNAseH) was 81 ± 24 Percent DMSO control and the “Residual activity at 10 uM, HHC1” value [3] was 55 ± 23 Percent DMSO control. For the same compound, the “Activity vs. HBV Genomic Replication” value (HBV) was “− (− no activity at 60 μM)” and the “Inhibition of poly-G production by HCV RNA polymerase” value [4] was “do not significantly inhibit”.

From patent US10329542B2, “HBV RNAse H purification and enzyme inhibitors” (Saint Louis University, priority 2012, dated 2019)
